Experiment: Three-point bending test of cured product
Assay type: physicochemical
Experimental: The composition prepared as described above was packed in a 2×2×25 mm SUS mold, covered with a cover film, and then irradiated with light from a dental visible light irradiator (α Light V, manufactured by J. Morita Tokyo MFG. Corp.) for 3 minutes on each side, namely, for a total of 6 minutes on both sides to cure the composition. The cured product was stored in deionized water at 37° C. for 24 hours, and then subjected to a three-point bending test with a general-purpose tester (Precise Versatile Material Tester 210X, manufactured by INTESCO Co., Ltd.) under conditions in which the distance between supports was 20 mm and the cross head speed was 1.0 mm/min. The results of the bending test of the cured products of the compositions to be used as the dental materials are shown in Table 2.

[1] = Table 2, composition: compound 1.80 g, UDMA 2.5 g, TEGDMA 0.74 g, plus 0.5 parts by weight TPO, cured product stored in deionized water at 37° C. 24 hours
[2] = Table 3, composition: compound 60, UDMA 30, TEGDMA 10 parts by weight, plus 0.5 parts TPO
[3] = Table 5, filled pasty composition in parts by weight: compound 8.0, UDMA 20, TEGDMA 10, 4-META 2.0, CQ 0.2, 2-butoxyethyl 4-(dimethylamino)benzoate 0.4, glass filler 59

| Cured product bending test result Elastic modulus [1] [GPa] | Cured product bending test result Maximum stress [1] [MPa] | Cured product bending test result Elastic modulus [2] [GPa] | Cured product bending test result Maximum stress [2] [MPa] | Compound | Cured product bending test result Elastic modulus [3] [GPa] |
| --- | --- | --- | --- | --- | --- |
| 2.3 | 102 | 2.2 | 92 | C=C(C)C(=O)OCCNC(=O)OCC(COC(=O)NCCOC(=O)C(=C)C)OP(=O)(O)O [Compound 2] | 6.5 |
| 1.7 | 85 | 0.32 | 22 | C=C(C)C(=O)OCCCCCCCCCCOP(=O)(O)O [MDP, 10-methacryloyloxydecyl dihydrogen phosphate, reference compound] | 5.7 |
| 2.0 | 89 | 1.3 | 66 | C=C(C)C(=O)OCCOCCNC(=O)OCC(COC(=O)NCCOCCOC(=O)C(=C)C)OP(=O)(O)O [Compound 6] | – |
| 2.4 | 102 | 2.3 | 88 | C=C(C)C(=O)OCCNC(=O)OCC(COCC(COC(=O)NCCOC(=O)C(=C)C)OP(=O)(O)O)OC(=O)NCCOC(=O)C(=C)C (stereo not drawn) [Compound 4] | – |
